# Reference: US20020037872A1, “N6 heterocyclic 5' modified adenosine derivatives” (CV Therapeutics, Inc., priority 1999, published 2002)
# Assays:
# [1] = molecular target: T1, A1 receptor (Mesocricetus auratus, UniProt A0A1U8BVR4); assay: Competitive binding assay, DDT1 cell membranes, [3H]CCPA; set-up: species or system hamster; conditions: [3H]CCPA 2 nM, DDT1 cell membranes; read-out: Ki-DDT1 cell membrane
# T1 construct: endogenous in cells; host or cells: DDT1 (DDT1 MF-2) hamster vas deferens smooth muscle cells
# T1 sequence (A0A1U8BVR4 1-326): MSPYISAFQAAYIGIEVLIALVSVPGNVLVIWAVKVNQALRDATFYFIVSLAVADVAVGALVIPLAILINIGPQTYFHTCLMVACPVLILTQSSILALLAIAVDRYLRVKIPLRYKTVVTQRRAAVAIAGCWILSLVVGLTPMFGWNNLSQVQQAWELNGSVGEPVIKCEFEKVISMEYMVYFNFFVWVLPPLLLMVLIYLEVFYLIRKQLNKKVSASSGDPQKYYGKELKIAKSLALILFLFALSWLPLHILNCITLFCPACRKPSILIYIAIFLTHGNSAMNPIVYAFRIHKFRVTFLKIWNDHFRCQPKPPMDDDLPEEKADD
# [2] = molecular target: T2, A1 receptor (Sus scrofa, UniProt I3LEN5); assay: Competitive binding assay, pig striatum membrane prep, [3H]CPX; conditions: [3H]CPX 2 nM, pig striatal membranes
# T2 sequence (I3LEN5 1-326): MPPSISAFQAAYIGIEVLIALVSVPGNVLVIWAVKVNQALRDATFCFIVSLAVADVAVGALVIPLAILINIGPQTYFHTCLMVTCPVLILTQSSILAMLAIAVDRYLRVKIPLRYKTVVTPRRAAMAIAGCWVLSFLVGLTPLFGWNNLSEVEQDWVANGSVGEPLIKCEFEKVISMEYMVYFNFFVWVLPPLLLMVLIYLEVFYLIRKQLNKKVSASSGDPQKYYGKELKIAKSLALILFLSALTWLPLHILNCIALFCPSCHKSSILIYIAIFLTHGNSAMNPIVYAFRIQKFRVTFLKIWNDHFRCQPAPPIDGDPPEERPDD
# Procedure: Competitive Binding Assay Pig striatum were prepared by homogenation in 50 mM Tris buffer (5× volume of tissue mass pH=7.4). After centrifilgation at 19,000 rpm for 25 minutes at 4° C., the supernatant was discarded, and the process was repeated twice. Compositions of this invention were assayed to determine their affinity for the A1 receptor in a pig striatum membrane prep or a DDT, membrane prep. Briefly, 0.2 mg of pig striatal membranes or DDT, cell membranes were treated with adenosine deaminase and 50 mM Tris buffer (pH=7.4) followed by mixing. To the pig membranes was added 2 μL of serially diluted DMSO stock solution of the compounds of this invention at concentrations ranging from 100 microM to 10 nM. The control received 2 microL of DMSO alone, then the antagonist [^3H] 8-cyclopentylxanthine (CPX) for pig striatum or the agonist [^3H] 2-chloro-6-cyclopentyladenosine (CCPA) for DDT, membranes in Tris buffer (50 mnM, pH of 7.4) was added to achieve a final concentration of 2 nM. After incubation at 23 C for 2 h, the solutions were filtered using a membrane harvester using multiple washing of the membranes (3×). The filter disks were counted in scintillation cocktail affording the amount of displacement of triated CPX or by the competitive binding compositions of this invention. […]
smiles,measurement,setting,value
"CNC(=O)OC[C@H]1O[C@@H](n2cnc3c(N[C@@H]4CCOC4)ncnc32)[C@H](O)[C@@H]1O [Compound 6, (5-16[((3R)oxolan-3-yl)aminolpurin-9-yl)(3S,2R,4R,5R)-3,4dihydroxyoxolan-2yl)methoxyl-N-methylearboxamide]",Ki,[1],0.178 µM
same,Ki,[2],0.228 µM
